Here are results for 10 molecules from patent US7612107B2, “Treatment and inhibition of disease conditions using flexible heteroarotinoids” (The Board of Regents of the University of Oklahoma, priority 2005, dated 2009).

Where two headings read alike, the source gives them in different places.

The test system of one series is OVCAR-3 xenograft tumors. Description: OVCAR-3 xenograft tumor growth model. It is filed as in vivo, mouse. The following applies: 10 mg/kg/day by gavage, 5 days per week, 4 weeks. As to the method:
Groups of 5 mice bearing OVCAR-3 xenografted tumors were gavaged daily with the indicated drugs in sesame oil (▪ closed square) or with sesame oil alone (∘ open circle). Tumor volumes were measured in 3 dimensions with calipers weekly. Each data point represents the average and standard error of the tumor volumes on the indicated treatment day relative to the tumor volume on day zero. Nu/nu mice were injected subcutaneously with one million OVCAR-3 cells and arbitrarily divided into five groups of six mice each. After three weeks of tumor growth, the animals were gavaged with sesame oil, 10 mg/kg/day 4-HPR, or the indicated Het five times per week for four weeks and the tumors were measured once per week. The tumor sizes were averaged and divided by the average size for each group on the day that treatment was initiated (day 0).
The OVCAR-3 cultures were maintained in RPMI media supplemented with 10% fetal bovine serum. All animal experimentation described in this manuscript was conducted in accord with accepted standards of humane animal care. Twenty-five female NU/NU CD-1 female mice (Charles Rivers Laboratories) were housed in a laminar flow room under sterile conditions at 83-85° F. The mice were quarantined for one week prior to the beginning of the study and were allowed access to autoclaved food (Purina 5001 mouse/rat sterilizable diet, St. Louis, Mo.) and water ad libitum. OVCAR-3 cells in log phase growth were harvested by trypsinization, resuspended in RPMI culture medium, and centrifuged at 3,000 rpm for 10 min. The pellets were resuspended in RPMI culture medium at a concentration of 7×10^6 cells/ml before implantation into mice. Animals were injected with 3.5×10^6 cells into the right scapular region with a 24-gauge needle/1 cc tuberculin syringe. Twenty-four hours after tumor implantation, animals were randomized into 5 groups of 5 animals each.
The Hets SHet50, SHetA2 and SHetA4 were synthesized and their receptor specificity determined as previously described (17,19). The 4-HPR compound was a gift from R.W. Johnson Pharmaceutical Research Institute, Raritan, N.J. All retinoids were dissolved in super refined sesame oil (Croda, Inc., Parsippany, N.J.) and stored at −80° C. Since the retinoids are light sensitive, all manipulations involving retinoids were performed under subdued lighting. […] Tumors were measured with calipers weekly, and tumor volumes were calculated using the formula: volume=length×width×height. Tumor growth was determined by the dividing the volume of the tumor at each weekly measurement by the volume on the first day of treatment. Animal weights and clinical signs of overall health status and cutaneous toxicities were recorded weekly.

Series [1] concerns organotypic cultures of human ovarian cancer cell lines and primary cultures. The experiment in a line: Ovarian carcinoma organotypic cultures (TUNEL, histology). In kind it is cell-based. The following applies: 1 μM retinoid in media. As to the method:
FIG. 17. Retinoid effects on ovarian carcinoma organotypic cultures. Organotypic cultures of OVCAR-3 (A, B, E, F, I and J), Caov-3 (C and G), SK-OV-3 (D and H), and O2 (K and L) were grown in the absence (−, top row and K) or presence (+, middle row and I, J and L) of retinoid HetA4 at a concentration of 1 μM in the media. All sections were stained with H&E except for […], which was stained with PAS to detect glycoproteins and glandular differentiation, and J, which was stained with the TUNEL assay to detect apoptosis. All magnifications are 40×.
To test our hypotheses, we evaluated the effects of clinically achievable concentrations of 4-HPR and Flex-Hets on growth, differentiation and apoptosis in ovarian tissue. A series of compounds with a variety of receptor activation profiles were evaluated. In order to evaluate therapeutic effects, we developed an organotypic culture model of ovarian tumors by growing established cell lines and primary cultures inside collagen gels. Monolayer cultures of cells are not accurate representations of in vivo tissue because they lack the types of interactions that cells have with other cells and with the extracellular matrix in vivo. These interactions are known to influence gene expression and thus the constitution and behavior of cells. In our organotypic model, the growth of tumor cells inside the collagen allows a representation of tumors that have invaded stromal tissue. In the presence of fibroblasts, established cell lines and primary cultures of ovarian cancer formed colonies inside the collagen, while normal or benign ovarian epithelial cells remained as single cells inside the collagen. Human ovarian cancer cell lines (OVCAR-3, Caov-3, SK-OV-3, A2780, UCI 101) and primary human cultures (borderline ovarian tumor (O1), serous papillary tumor (O2), benign ovarian cyst (O3)) were cultured inside and on top of a collagen gel seeded with 3T3 fibroblasts for one week. After further incubation in the presence or absence of 1 μM retinoid (media concentration) for 3, 7 or 14 days, cultures were fixed and sectioned for immunohistochemical analysis.
The TUNEL assay was used to evaluate apoptosis in fixed, paraffin embedded, cut sections of the treated and control cultures (FIG. 17). […] These two cellular outcomes appeared to be mutually exclusive.

In the next series the test system is Raldh2-/- embryos. The following applies: for No. of −/− rescued / No. of −/− unrescued: E10.25; for Teratogenesis: mouse, in vivo, po. As to the method:
Briefly, retinoids were dissolved in corn oil and administered orally to timed-pregnant Raldh2_/_mice at 12-h intervals on E7.25, E7.75, and E8.25. Dosages varied from 0.025 to 25 mg/kg. At E10.25, embryos were analyzed morphologically to determine whether Raldh2_/_embryos were rescued or whether wild-type embryos had suffered teratogenesis. Detection of embryonic RA was performed in situ in embryos carrying the RARE-lacZ RA-reporter gene by staining for beta-galactosidase activity for 10 h (45).
A mouse model that lacks retinaldehyde dehydrogenase (Raldh2) due to null mutations was used to test the ability of Flex-Hets to substitute for retinoic acid (RA) and induce birth defects. […] We examined the relative ability of all-trans-RA, 9-cis-RA, receptor-specific synthetic retinoids and retinoic acid receptor independent Flex-Hets to rescue the Raldh2_/_embryonic lethal phenotype.

A further series deals with dorsal skin. Description: Topical irritancy in Skh hairless mice. It is filed as in vivo. As to the method:
Female Skh hairless mice, 6-8 weeks old, were treated topically on the dorsal skin for 4 days over a 2-log concentration dose range with various compounds. Retinoic acid receptor-Hets were evaluated in A, while retinoic acid receptor-independent Flex-Hets were evaluated in B. Daily flaking and abrasion scores were combined to calculate a single cutaneous toxicity score for each mouse. Each treatment group consisted of 4 mice, and group averages were used to plot cutaneous toxicity against doses of the compounds.
Topical irritancy was evaluated according to published procedures (29). Briefly, female Skh hairless mice, 6-8 weeks old, were treated topically on the dorsal skin for 4 days over a 2-log concentration dose range with various compounds. Daily flaking and abrasion scores were combined to calculate a single cutaneous toxicity score for each mouse. Each treatment group consists of 4 mice, and group averages are used to plot cutaneous toxicity against dose of the retinoid compound.

The subject of series [2] is human polycystic kidney disease cells. The experiment in a line: 3-D model of polycystic kidney disease, cyst formation. It is filed as cell-based. The following applies: 4 μM, 3 weeks. As for the experimental part: FIG. 21. Effects of Flex-Hets on formation of cysts in cultured polycystic kidney disease cells. A primary culture of polycystic kidney cells were grown inside a mixture of collagen I and matrigel and treated with prostaglandin E2 to induce cyst formation. Parallel cultures were treated with 10 micromolar SHetA3 and SHetA4.
The 3-D model of the PKD was developed as described here. Single-cell suspensions of the PCKD cell lines was re-suspended in a 4° C. solution mixture containing rat tail collagen I (Collaborative Biomedical Products, Bedford, Mass.), matrigel (Becton Dickinson) and MEM. The suspension was poured into Falcon cell culture inserts with transparent membranes containing 0.4 μm pores (Becton Dickinson, Franklin Lakes, N.J.) and placed at 37° C. Treatment of cultures was initiated after 1 day of growth and replenished with medium once in every two days. Drugs (Flex-Hets at 4 μM Conc.) and hormones (PGE2 at 25 ng/ml) were administered into the medium surrounding the insert. Untreated control cultures were grown in the same conditions as that of the treated cultures. Drug treatment was carried out for 3 weeks before their effects on growth and inhibition were evaluated.

For series [3] the following is noted: more potent than RA; cited from earlier work.
Setting [4] is: topical, dorsal skin, 4 days, 2-log dose range.

Turning to `CC1=C(/C=C/C(C)=C/C=C/C(C)=C/C(=O)Nc2ccc(O)cc2)C(C)(C)CCC1` [4-HPR, reference compound], the “Growth of xenograft tumors versus sesame oil control” value in the series on OVCAR-3 xenograft tumors is “significantly inhibited the growth”. Also, the “Induction of apoptosis (TUNEL) in organotypic cultures” value (“Induction of apoptosis (TUNEL)” below) in series [1] was “Apoptosis was induced”.

Regarding `CC1=C(/C=C/C(C)=C\C=C\C(C)=C\C(=O)O)C(C)(C)CCC1` [9-cis-RA], the “No. of −/− rescued” value in the series with Raldh2-/- embryos (Dose 2.5 mg/kg oral) is recorded as 2; with Raldh2-/- embryos (Dose 10 mg/kg oral), 6. The “No. of −/− unrescued” value with Raldh2-/- embryos (Dose 2.5 mg/kg oral) was 8; in the series on Raldh2-/- embryos (Dose 10 mg/kg oral) it was 1. Further, the Teratogenesis in the series on Raldh2-/- embryos (2.5 mg/kg) and in the series on Raldh2-/- embryos (10 mg/kg) was 0 in each case. Further, in series [1], the “Induction of apoptosis (TUNEL)” value is reported as “Apoptosis was induced”.

Regarding `CC1=C(/C=C/C(C)=C/C=C/C(C)=C/C(=O)O)C(C)(C)CCC1` [All-trans-RA], the “No. of −/− rescued” value is listed as 0 with Raldh2-/- embryos (Dose 1.0 mg/kg oral) and 13 in the series with Raldh2-/- embryos (Dose 2.5 mg/kg oral). The “No. of −/− unrescued” value in the series on Raldh2-/- embryos (Dose 1.0 mg/kg oral) amounted to 7; with Raldh2-/- embryos (Dose 2.5 mg/kg oral), 1. In addition, the Teratogenesis in the series with Raldh2-/- embryos (1 mg/kg) and in the series with Raldh2-/- embryos (2.5 mg/kg) was 0 throughout.

In the case of `CCOC(=O)c1ccc(OC(=O)c2ccc3c(c2)C(C)(C)CCN3C(C)C)cc1` [NHet17], the “Topical irritancy (cutaneous toxicity score)” value (“Topical irritancy” for short) in the series on dorsal skin (setting [4]) is recorded as “induced topical irritancy scores in a dose-responsive manner”.

For `CC1(C)CCOc2ccc(C(=O)Oc3ccc(C=NNC(N)=S)cc3)cc21` [OHet72], in the series with dorsal skin (mouse, in vivo), the “Topical irritancy” value is listed as “did not induce topical irritancy”. The “Rescue of Raldh2−/− embryos (in words)” value in the series with Raldh2-/- embryos (2.5 mg/kg) and in the series on Raldh2-/- embryos (10 or 25 mg/kg) was “no rescue” in each case. Moreover, the “No. of −/− rescued” value in the series on Raldh2-/- embryos (Dose 2.5 mg/kg oral), with Raldh2-/- embryos (Dose 10 mg/kg oral) and in the series on Raldh2-/- embryos (Dose 25 mg/kg oral) was 0 each time. Further, the “No. of −/− unrescued” value worked out at 4 in the series with Raldh2-/- embryos (Dose 2.5 mg/kg oral), 3 in the series with Raldh2-/- embryos (Dose 10 mg/kg oral) and 5 in the series with Raldh2-/- embryos (Dose 25 mg/kg oral). Moreover, the Teratogenesis in the series with Raldh2-/- embryos (2.5 mg/kg), with Raldh2-/- embryos (10 mg/kg) and in the series on Raldh2-/- embryos (25 mg/kg) was 0 each time.

Consider `COC(=O)c1ccc(C(=O)Nc2ccc3c(c2)C(C)(C)CC(C)(C)S3)cc1` [SHet50, reference compound], for which the “Growth of xenograft tumors versus sesame oil control” value in the series on OVCAR-3 xenograft tumors is recorded as “significantly inhibited the growth”. Besides, the “Induction of apoptosis (TUNEL)” value in series [1] was “Apoptosis was induced”.

Take `CC(C=CC=C(C)c1ccc2c(c1)C(C)(C)CS2)=CC(=O)O` [SHet65]: the “Topical irritancy” value in the series with dorsal skin (setting [4]) is “induced topical irritancy scores in a dose-responsive manner”.

As for `CC(Cc1ccc(C(=O)O)cc1)c1ccc2c(c1)C(C)(C)CS2` (stereo not drawn) [SHet100], the “Rescue of Raldh2−/− embryos (in words)” value in the series with Raldh2-/- embryos (0.5 mg/kg) is on record as “typical rescue phenotype”. Besides, the “No. of −/− rescued” value in the series with Raldh2-/- embryos (Dose 0.025 mg/kg oral) came out at 0; in the series on Raldh2-/- embryos (Dose 0.25 mg/kg oral) it was 2; in the series on Raldh2-/- embryos (Dose 0.5 mg/kg oral) it was 6. Also, the “No. of −/− unrescued” value with Raldh2-/- embryos (Dose 0.025 mg/kg oral) stood at 2; in the series on Raldh2-/- embryos (Dose 0.25 mg/kg oral) it was 0; in the series with Raldh2-/- embryos (Dose 0.5 mg/kg oral) it was 1. Moreover, the Teratogenesis with Raldh2-/- embryos (0.025 mg/kg) came out at 0; in the series on Raldh2-/- embryos (0.25 mg/kg), 0; in the series with Raldh2-/- embryos (0.5 mg/kg), 0; in the series with Raldh2-/- embryos (2.5 mg/kg), 11.

With `CCOC(=O)c1ccc(NC(=O)Nc2ccc3c(c2)C(C)(C)CC(C)(C)S3)cc1` [SHetA4], the “Topical irritancy” value with dorsal skin (mouse, in vivo) was “did not induce topical irritancy”. For the same molecule, the “Differentiated phenotype (tubular structures)” value in series [2] was “induced the formation of several branched tubular structures”. Moreover, in series [2] (PGE2 25 ng/ml), the Cyst formation entry is “completely eliminated cyst formation”. For the same molecule, in the series with OVCAR-3 xenograft tumors, the “Growth of xenograft tumors versus sesame oil control” value is on record as “significantly inhibited the growth”. Moreover, the “Induction of apoptosis (TUNEL)” value in series [1] is recorded as “Apoptosis was induced”.

Regarding `C/C(=C\c1ccc(C(=O)O)cc1)c1ccc2c(c1)C(C)(C)CCC2(C)C` [TTNPB], the “Potency relative to RA” value in series [3] is 10 fold.
